The source of these data is patent US20240398771A1, “TREATMENT OF SCLERODERMA AND RAYNAUD'S SYNDROME” (Aisa Pharma, Inc., priority 2023, published 2024).

In data set [1] the test system is participants with SSc-RP. In words: SHAQ Visual Analog Scale - Intestinal Problems. The class given is in vivo, human. The note with it: Modified ITT, Part A. The protocol: (§1) Results: Patients in the study were administered the Scleroderma Health Assessment Questionnaire (SHAQ) at the time of study entry and during clinic visits following the treatment period. The study is a two-part, parallel arm design, prospective, double-blind, randomized study conducted in Australia (Flinders Medical Center). 27 patients were randomized into the first phase of the study, following which a DSMB meeting was held, which reviewed data on the primary study endpoint and key Raynaud's secondary endpoints. Data on the SHAQ was not available for the DSMB to review. The mITT population, in which any data was available post treatment was 24 patients was the analysis population for this first part of the study. The second part (i.e., part B) of the study will randomize 36 patients in a double blind, randomized, prospective, placebo controlled, crossover study. In the first part (i.e., Part A) of the study for which data is presented, patients were randomized into 6 groups, cilnidipine at two doses (10 and 20 mg) alone and in combination with tadalafil 5 mg, tadalafil 5 mg alone, and placebo. […] The DSMB recommended that the study proceed into its double blind prospective cross overpowered second phase and compare cilnidipine 20 mg alone to placebo. […] Cilnidipine treatment may reduce patient-reported SSc disease disability compared to placebo • b. Cilnidipine treatment may reduce patient-reported SSc disease alternative disability compared to placebo • c. Cilnidipine treatment may reduce patient-reported SSc disease pain* compared to placebo • d. Cilnidipine treatment may reduce patient-reported SSc disease severity compared to placebo • e. Cilnidipine treatment may reduce patient-reported SSc disease skin ulcer severity rating compared to placebo • f Cilnidipine treatment may reduce patient-reported SSc disease breathing difficulty compared to placebo • g. […] SSc disease pain comprises not only pain from Raynaud's but joint pain, headache, odynophagia, back pain, pain from skin ulceration, and neuropathic pain). Table E includes results of the Scleroderma Health Assessment Questionnaire.

Data set [2] concerns participants with SSc-RP. In words: SHAQ Visual Analog Scale - overall disease severity. The class given is in vivo, human. Set-up: Overall Change in Severity, Baseline, Mean / Overall Change in Severity, Baseline, Median / Overall Change in Severity, Change from Baseline, Mean / Overall Change in Severity, Change from Baseline, Median: scale not given here. The protocol:
as §1

The test system of data set [3] is participants with SSc-RP. In words: Adverse events and serious adverse events (safety, tolerability). The class given is in vivo. From the text:
In this study, AEs and SAEs will be reported for all participants from the time of randomization until the completion of the Follow-up/EOS visit. Adverse events that are ongoing at the EOS visit will be marked as Not Recovered/Not resolved on the AE eCRF page.
An AE is any event, side effect, or other untoward medical occurrence that occurs in conjunction with the use of a medicinal product in humans, whether or not considered to have a causal relationship to this treatment. An AE can, therefore, be any unfavorable and unintended sign (that could include a clinically significant abnormal laboratory finding), symptom, or disease temporally associated with the use of a medicinal product, whether or not considered related to the medicinal product.
Severity of AEs will be graded by the Investigator as one of: • Mild (Grade 1): A type of AE that is usually transient and may require only minimal treatment or therapeutic intervention.
An SAE is an AE occurring during any study phase (i.e. baseline, treatment, washout, or follow-up), and at any dose of the study drug (active or placebo), that fulfills one or more of the following: • Results in death • It is immediately life-threatening • It requires in participant hospitalization or prolongation of existing hospitalization • It results in persistent or significant disability or incapacity • Results in a congenital abnormality or birth defect • It is an important medical event that may jeopardize the participant or may require medical intervention to prevent one of the outcomes listed above.
Adverse events will be coded using the most current version of the MedDRA® Version 22.0 or higher. The analysis of AEs will be based on the concept of treatment emergent AEs. Treatment emergent AEs will be tabulated by treatment group and will include the number of participants for whom the event occurred, the severity, and relationship to study drug. Treatment emergent AEs (TEAEs) leading to discontinuation and SAEs with onset after the start of study drug will also be summarized.
Treatment-emergent AEs (TEAEs) are defined as AEs that occur or worsen after the dose of study drug. If the timing of the start of an AE could not be determined unambiguously from the start or end dates provided, it will be assumed to be a TEAE. An AE is considered related if the relationship to either of the study drug has been indicated as possibly or probably or definite related by the investigator. An AE leading to study withdrawal is defined as an AE that cause a subject early terminated from the study. AEs will be identified as emerging in the following parts: • TEAEs for Part A will be those that started during Part A (i.e., from the first dose in Part A to end of follow up of Part A) • TEAEs for Part B will be those that started during Part B (i.e., from the first dose in Part B to end of follow-up of Part B).
• Incidence of treatment emergent adverse events (AEs) and serious adverse events (SAEs), including clinically significant vital signs. For Part A safety will be assessed from the time of randomization until 7 days following the last protocol dose. For Part B, participants will be followed for 28 days from the last study dose. • Serious adverse events will be monitored by a DSMB (Part A) and Drug Safety Officer (Part B) on an ongoing basis throughout the study. • Adverse events will be coded using the MedDRA and summarized by SOC, PT, and treatment group.

For data set [4] the following is noted: 10 mg, single oral dose, healthy volunteers; cited from earlier work.
Setting [5] is: Cilnidipine 10 mg, Modified ITT, Part A.
The mark [6] stands for this setting: Cilnidipine 20 mg, Modified ITT, Part A.
The mark [7] stands for this setting: Pooled Cilnidipine (10 mg or 20 mg, N = 7), mITT Part A.
The mark [8] stands for this setting: Tadalafil 5 mg, Modified ITT, Part A.

Structures are written as SMILES. Entries after “also recorded” stand apart in the source; their conditions may differ.

Take `COCCOC(=O)C1=C(C)NC(C)=C(C(=O)OC/C=C/c2ccccc2)C1c1cccc([N+](=O)[O-])c1` (stereo not drawn) [Cilnidipine, 1,4-dihydro-2,6-dimethyl,4-(3-nitrophenyl)-3,5-pyridinedicarboxylic acid 2-methoxyethyl (2 E)-3-phenyl-2-propenyl ester]: in the data set with participants with SSc-RP [1] (Cilnidipine 20 mg), the “Visual Analog Scale-Intestinal Problems, Baseline, Median” value amounted to 1.000. In the data set with participants with SSc-RP [2] (setting [5]), the “Overall Change in Severity, Baseline, Median” value is listed as 1.900; the “Overall Change in Severity, Change from Baseline, Mean” value is reported as −0.900; the “Overall Change in Severity, Change from Baseline, Median” value was −0.950. Further, in the data set with participants with SSc-RP [2] (setting [6]), the “Overall Change in Severity, Baseline, Median” value is listed as 2.900; the “Overall Change in Severity, Change from Baseline, Median” value is listed as −1.600; the “Overall Change in Severity, In Clinic Visit (Day 12), Median” value is given as 1.200; the “Overall Change in Severity, Percent Change from Baseline, Median” value is listed as −60.00%. The “patient-reported SSc disease severity compared to placebo” value with participants with SSc-RP [2] (Example 4, SHAQ, mITT Part A) is listed as “may reduce”. Also, in the data set with participants with SSc-RP [2] (setting [7]), the “SHAQ patient reported disease severity: Baseline, Mean (SD)” value is 2.700 (2.3424) and the “SHAQ patient reported disease severity: Baseline, Median” value is given as 2.900. Moreover, the “Safety: withdrawals” value in the data set with participants with SSc-RP [3] (Cilnidipine 20 mg (n = 8)) is given as 1 withdrawal. Besides, the “Safety: number of AE” value in the data set on participants with SSc-RP [3] (Cilnidipine 20 mg (n = 8), HA-mild) is on record as 1AE (HA-mild;. Moreover, in the data set with participants with SSc-RP [3] (Example 4), the “severity grade of adverse events” value is “only Grade 1 Adverse Events (AEs) were reported; also recorded: only mild (Grade 1) adverse events occurred”. In addition, the tolerability entry in the data set with participants with SSc-RP [3] (Example 4, 10 mg and 20 mg, alone or in combination with tadalafil) is recorded as “well tolerated; also recorded: good tolerability”. In addition, the “overall adverse event rate / incidence of Adverse Events” value with participants with SSc-RP [3] (Example 4, all patients who received any dose of cilnidipine (n=17)) is 17%. In addition, the “Safety: withdrawals” value in the data set on participants with SSc-RP [3] (Pooled Cilnidipine (n = 9)) is “T); no withdrawals”. Also, the “Safety: number of AE” value in the data set with participants with SSc-RP [3] (Pooled Cilnidipine (n = 9), AE in combo with T) is given as 1AE (in combo with. In data set [4], the “CL/F, Mean” value was 304.7 L/h.

As for `CN1CC(=O)N2[C@H](c3ccc4c(c3)OCO4)c3[nH]c4ccccc4c3C[C@@H]2C1=O` [Tadalafil], in the data set on participants with SSc-RP [1] (Tadalafil 5 mg), the “Visual Analog Scale-Intestinal Problems, Baseline, Mean” value is 0.925; the “Visual Analog Scale-Intestinal Problems, Baseline, Median” value stood at 0.950; the “Visual Analog Scale-Intestinal Problems, Change from Baseline, Mean” value is reported as −0.250; the “Visual Analog Scale-Intestinal Problems, Change from Baseline, Median” value is recorded as −0.150. Besides, in the data set with participants with SSc-RP [1] (Tadalafil 5 mg), the “Visual Analog Scale-Intestinal Problems, In Clinic Visit (Day 12), Mean” value is 1.175; the “Visual Analog Scale-Intestinal Problems, In Clinic Visit (Day 12), Median” value turned out to be 0.100; the “Visual Analog Scale-Intestinal Problems, Percent Change from Baseline, Mean” value was −2.55%; the “Visual Analog Scale-Intestinal Problems, Percent Change from Baseline, Median” value is listed as −88.89%. In the data set with participants with SSc-RP [2] (setting [8]), the “Overall Change in Severity, Baseline, Mean” value is on record as 3.600; the “Overall Change in Severity, Baseline, Median” value is 2.550; the “Overall Change in Severity, Change from Baseline, Mean” value was −0.850; the “Overall Change in Severity, Change from Baseline, Median” value is −0.650. Moreover, in the data set with participants with SSc-RP [2] (setting [8]), the “Overall Change in Severity, In Clinic Visit (Day 12), Mean” value is on record as 2.750; the “Overall Change in Severity, In Clinic Visit (Day 12), Median” value came out at 1.500; the “Overall Change in Severity, Percent Change from Baseline, Mean” value was −31.76%; the “Overall Change in Severity, Percent Change from Baseline, Median” value was −36.22%. Besides, the “Adverse Events (AEs): worst AE by group” value in the data set with participants with SSc-RP [3] (tadalafil monotherapy group) is on record as “Worst AE in tadalafil”.
